In patent US20250326749A1, “COMPOUNDS, COMPOSITIONS, AND METHODS OF USING THEREOF” (Sionna Therapeutics Inc., priority 2022, published 2025):

biological target: T1, ΔF508-CFTR (Homo sapiens, UniProt P13569, DEL508-508); experiment: ΔF508-CFTR-HRP trafficking assay (cell surface expression of ΔF508-CFTR); format: cell-based; conditions: CFSMEo- cells transiently transfected with ΔF508-CFTR-HRP; test agent 3 μM, 48 h; HRP chemiluminescence
T1 construct: expressed in transfected cells; host or cells: CFSMEo- (human CF submucosal gland epithelial cells, ΔF508/Q2X), transiently transfected by nucleofection
Excerpt: Test agents were screened for their effect on cell surface expression of ΔF508-CFTR using the ΔF508-CFTR-HRP trafficking assay. For this assay, a ΔF508-CFTR expression construct was designed with an in-frame insertion of a horseradish peroxidase (HRP) tag into the 4th extracellular loop of CFTR. The HRP tag would be presented extracellularly, in cells transiently transfected with the ΔF508-CFTR-HRP construct, following correction of the ΔF508-CFTR trafficking defect. The quantity of ΔF508-CFTR-HRP expressed on the plasma membrane could therefore be determined by measuring an HRP-dependent signal after the application of a cell-impermeable HRP substrate.
In brief, CF submucosal gland epithelial cells (CFSMEo-), derived from the airways of a CF patient (ΔF508/Q2X) and provided by Dr. Dieter Gruenert, University of California-San Francisco, were cultured at 37° C. with 5% CO2 in minimum essential medium (MEM) with Earle's salt and nonessential amino acids, supplemented with 10% (volume per volume [v/v]) fetal bovine serum, 2 mM L-glutamine and 1× (v/v) penicillin/streptomycin and grown in tissue culture-treated flasks coated with an extracellular matrix (ECM) cocktail consisting of 10 μg/mL human fibronectin, 30 μg/mL bovine collagen type I, and 100 μg/mL bovine serum albumin in LHC basal medium. These CFSMEo^− cells were transiently transfected with 4 μg of the ΔF508-CFTR-HRP expression construct using the Lonza 4D-Nucleofector Core unit (Lonza, Catalogue No. AAF-1002B) with the X unit (Lonza, Catalogue No. AAF-1002X) and SF Cell Line 4D-Nucleofector X Kit L (Lonza, Catalogue No. V4XC-2024) according to the manufacturer's instructions and plated at 1.2×10^4 cells/well onto collagen-coated, 96-well plates (Corning Inc.). Twenty-four h post-transfection, cells were treated with test agents, solubilized in DMSO at a concentration of 3 μM in replicates of 3, and allowed to incubate for 48 h. To detect HRP expression, cell culture media was removed, cells were washed with PBS and 100 μL of Luminata Forte HRP chemiluminescent substrate (EMD Millipore, Burlington, MA) was added to each well. Following a 5-minute incubation, chemiluminescence was measured in relative luminescent units (RLUs) using an EnVision plate reader (Perkin Elmer, Waltham, MA).
The ΔF508-CFTR-HRP trafficking data was normalized to the vehicle treated control (0.3% DMSO), followed by calculation of the mean, standard deviation, and standard error. If the test agent increased cell surface expression of ΔF508-CFTR-HRP relative to the vehicle-treated control, then that test agent was considered a ΔF508-CFTR corrector. Based on the description above, the biological activity of the examples in this disclosure is collected in Table 2.

T1 sequence (P13569 with tags, fused parts or gaps DEL508-508): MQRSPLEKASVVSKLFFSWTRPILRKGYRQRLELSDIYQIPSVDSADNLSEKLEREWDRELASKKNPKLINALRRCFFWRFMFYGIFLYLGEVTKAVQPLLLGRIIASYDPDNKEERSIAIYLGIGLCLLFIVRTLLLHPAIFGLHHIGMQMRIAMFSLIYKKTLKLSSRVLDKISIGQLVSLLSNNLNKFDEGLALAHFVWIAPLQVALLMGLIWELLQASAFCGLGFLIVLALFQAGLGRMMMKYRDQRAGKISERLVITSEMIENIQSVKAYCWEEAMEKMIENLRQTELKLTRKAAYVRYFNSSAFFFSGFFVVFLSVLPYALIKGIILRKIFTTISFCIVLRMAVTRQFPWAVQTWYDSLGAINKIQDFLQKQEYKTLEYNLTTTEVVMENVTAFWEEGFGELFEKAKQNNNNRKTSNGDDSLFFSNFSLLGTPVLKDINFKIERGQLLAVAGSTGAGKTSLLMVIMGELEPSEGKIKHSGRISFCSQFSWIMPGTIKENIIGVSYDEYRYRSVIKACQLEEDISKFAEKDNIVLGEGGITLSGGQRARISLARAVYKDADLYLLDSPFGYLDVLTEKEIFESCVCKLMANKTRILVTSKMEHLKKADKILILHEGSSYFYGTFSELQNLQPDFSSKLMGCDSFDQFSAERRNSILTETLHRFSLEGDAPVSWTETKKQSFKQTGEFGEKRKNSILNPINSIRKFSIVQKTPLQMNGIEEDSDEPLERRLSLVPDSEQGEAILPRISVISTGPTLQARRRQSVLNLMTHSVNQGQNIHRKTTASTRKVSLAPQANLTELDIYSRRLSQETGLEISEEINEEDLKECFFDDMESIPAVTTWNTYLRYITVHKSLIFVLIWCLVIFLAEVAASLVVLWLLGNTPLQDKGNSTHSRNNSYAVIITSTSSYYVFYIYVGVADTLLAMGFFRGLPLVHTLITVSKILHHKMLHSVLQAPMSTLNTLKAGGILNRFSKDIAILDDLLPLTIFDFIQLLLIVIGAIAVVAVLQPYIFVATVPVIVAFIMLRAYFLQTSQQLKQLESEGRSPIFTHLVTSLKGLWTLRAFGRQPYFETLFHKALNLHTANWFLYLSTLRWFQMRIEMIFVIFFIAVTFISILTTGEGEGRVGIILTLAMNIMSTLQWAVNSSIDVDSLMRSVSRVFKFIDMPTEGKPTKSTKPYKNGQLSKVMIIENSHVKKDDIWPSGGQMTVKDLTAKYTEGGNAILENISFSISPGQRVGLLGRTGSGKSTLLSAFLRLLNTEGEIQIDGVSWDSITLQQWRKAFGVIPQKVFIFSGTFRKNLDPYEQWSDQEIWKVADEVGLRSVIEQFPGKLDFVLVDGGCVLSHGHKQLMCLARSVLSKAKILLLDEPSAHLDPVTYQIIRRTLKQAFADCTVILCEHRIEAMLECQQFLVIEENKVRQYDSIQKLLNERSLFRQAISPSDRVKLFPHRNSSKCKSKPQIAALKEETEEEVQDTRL

Structure (SMILES) | RLUs: ΔF508-CFTR-HRP trafficking data normalized to the vehicle treated control (0.3% DMSO)
C[C@H](Oc1cncc(-n2nc(C(F)(F)F)c3c2[C@H](CN2CCC(C(=O)O)CC2)CCC3)c1)c1ccc2c(c1)OC(F)(F)O2 (single isomer, unassigned) [124 (P2)] | B (RLU 3.5 μM-5.0 μM)
C[C@H](Oc1cc(-n2nc(C(F)(F)F)c3c2[C@@H](CN2CCC(C(=O)O)CC2)CCC3)ccn1)c1ccc2c(c1)OC(F)(F)O2 (single isomer, unassigned) [125 (P1)] | A (RLU 5.0 μM-10 μM)
C[C@H](Oc1cc(-n2nc(C(F)(F)F)c3c2[C@H](CN2CCC(C(=O)O)CC2)CCC3)ccn1)c1ccc2c(c1)OC(F)(F)O2 (single isomer, unassigned) [125 (P2)] | A (RLU 5.0 μM-10 μM)
C[C@@H](Oc1cc(-n2nc(C(F)(F)F)c3c2N(CC24CC(C(=O)O)(C2)C4)CCC3)cnn1)c1cc2c(cn1)OC(F)(F)O2 (single isomer, unassigned) [Example 1] | C (RLU 0.0 μM-3.5 μM)
C[C@H](Oc1cc(-n2nc(C(F)(F)F)c3c2N(CC24CC(C(=O)O)(C2)C4)CCC3)cnn1)c1cc2c(cn1)OC(F)(F)O2 (single isomer, unassigned) [Example 2] | C (RLU 0.0 μM-3.5 μM)
C[C@@H](Oc1cc(-n2nc(C(F)(F)F)c3c2N(Cc2ccc(C(=O)O)cc2)CCC3)cnn1)c1ccc2c(c1)OC(F)(F)O2 (single isomer, unassigned) [Example 3] | C (RLU 0.0 μM-3.5 μM)
C[C@H](Oc1cc(-n2nc(C(F)(F)F)c3c2N(Cc2ccc(C(=O)O)cc2)CCC3)cnn1)c1ccc2c(c1)OC(F)(F)O2 (single isomer, unassigned) [Example 4] | B (RLU 3.5 μM-5.0 μM)
C[C@@H](Oc1cc(-n2nc(C(F)(F)F)c3c2N(CC24CC(C(=O)O)(C2)C4)CCC3)cnn1)c1ccc2c(c1)OC(F)(F)O2 (single isomer, unassigned) [Example 5] | A (RLU 5.0 μM-10 μM)
C[C@H](Oc1cc(-n2nc(C(F)(F)F)c3c2N(CC24CC(C(=O)O)(C2)C4)CCC3)cnn1)c1ccc2c(c1)OC(F)(F)O2 (single isomer, unassigned) [Example 6] | C (RLU 0.0 μM-3.5 μM)
C[C@H](Oc1cc(-n2nc(C(F)(F)F)c3c2N(C[C@H]2CC[C@H](C(=O)O)CC2)CCC3)ccn1)c1ccc2c(c1)OC(F)(F)O2 (single isomer, unassigned) [Example 7] | A (RLU 5.0 μM-10 μM)
C[C@H](Oc1cc(-n2nc(C(F)(F)F)c3c2N(CC24CCC(C(=O)O)(CC2)CC4)CCC3)ccn1)c1ccc2c(c1)OC(F)(F)O2 (single isomer, unassigned) [Example 9] | A (RLU 5.0 μM-10 μM)
C[C@H](Oc1cncc(-n2nc(C(F)(F)F)c3c2N(Cc2ccc(C(=O)O)cc2)CCC3)c1)c1ccc2c(c1)OC(F)(F)O2 (single isomer, unassigned) [Example 12] | C (RLU 0.0 μM-3.5 μM)
C[C@H](Oc1cncc(-n2nc(C(F)(F)F)c3c2N(CC24CCC(C(=O)O)(CC2)CC4)CCC3)c1)c1ccc2c(c1)OC(F)(F)O2 (single isomer, unassigned) [Example 14] | A (RLU 5.0 μM-10 μM)
C[C@H](Oc1cccc(-n2nc(C(F)(F)F)c3c2N(C(=O)c2ccc(C(=O)O)cc2)CCC3)c1)c1ccc2c(c1)OC(F)(F)O2 (single isomer, unassigned) [Example 15] | B (RLU 3.5 μM-5.0 μM)
C[C@H](Oc1cncc(-n2nc(C(F)(F)F)c3c2N(C(=O)c2ccc(C(=O)O)cc2)CCC3)c1)c1ccc2c(c1)OC(F)(F)O2 (single isomer, unassigned) [Example 16] | C (RLU 0.0 μM-3.5 μM)
C[C@H](Oc1cncc(-n2nc(C(F)(F)F)c3c2N(C(=O)[C@H]2CC[C@H](C(=O)O)CC2)CCC3)c1)c1ccc2c(c1)OC(F)(F)O2 (single isomer, unassigned) [Example 17] | C (RLU 0.0 μM-3.5 μM)
C[C@H](Oc1cc(-n2nc(C(F)(F)F)c3c2[C@H](Oc2ccc(C(=O)O)cc2)CCC3)ccn1)c1ccc2c(c1)OC(F)(F)O2 (single isomer, unassigned) [Example 23] | C (RLU 0.0 μM-3.5 μM)
C[C@H](Oc1cccc(-n2nc(C(F)(F)F)c3c2[C@@H](Oc2ccc(C(=O)O)cc2)CCC3)c1)c1ccc2c(c1)OC(F)(F)O2 (single isomer, unassigned) [Example 25] | B (RLU 3.5 μM-5.0 μM)
C[C@H](Oc1cccc(-n2nc(C(F)(F)F)c3c2[C@H](Oc2ccc(C(=O)O)cc2)CCC3)c1)c1ccc2c(c1)OC(F)(F)O2 (single isomer, unassigned) [Example 26] | A (RLU 5.0 μM-10 μM)
C[C@H](Oc1cncc(-n2nc(C(F)(F)F)c3c2[C@@H](Oc2ccc(C(=O)O)cc2)CCC3)c1)c1ccc2c(c1)OC(F)(F)O2 (single isomer, unassigned) [Example 27] | C (RLU 0.0 μM-3.5 μM)
C[C@@H](Oc1cccc(-n2nc(C(F)(F)F)c3c2C(Oc2ccc(C(=O)O)cc2)CCC3)c1)c1ccc2c(c1)OC(F)(F)O2 (single isomer, unassigned) [Example 28] | A (RLU 5.0 μM-10 μM)
Cc1cc(OC2CCCc3c(C(F)(F)F)nn(-c4cccc(O[C@H](C)c5cc6c(cc5F)OC(F)(F)O6)c4)c32)ccc1C(=O)O (single isomer, unassigned) [Example 34] | B (RLU 3.5 μM-5.0 μM)
C[C@H](Oc1cc(-n2nc(C(F)(F)F)c3c2[C@@H](Oc2ccc(C(=O)O)cc2)CCC3)ccc1F)c1ccc2c(c1)OC(F)(F)O2 (single isomer, unassigned) [Example 36] | C (RLU 0.0 μM-3.5 μM)
C[C@H](Oc1cc(-n2nc(C(F)(F)F)c3c2[C@@H](Oc2ccc(C(=O)O)cc2)CCC3)ccn1)c1cc2c(cc1F)OC(F)(F)O2 (single isomer, unassigned) [Example 36a] | A (RLU 5.0 μM-10 μM)
C[C@H](Oc1ccnc(-n2nc(C(F)(F)F)c3c2[C@@H](Oc2ccc(C(=O)O)cc2)CCC3)c1)c1ccc2c(c1)OC(F)(F)O2 (single isomer, unassigned) [Example 36b] | A (RLU 5.0 μM-10 μM)
C[C@H](Oc1cccc(-n2nc(C(F)(F)F)c3c2[C@@H](Oc2ccc(C(=O)O)cc2)CCC3)n1)c1ccc2c(c1)OC(F)(F)O2 (single isomer, unassigned) [Example 36c] | B (RLU 3.5 μM-5.0 μM)
C[C@H](Oc1cc(-n2nc(C(F)(F)F)c3c2[C@@H](Oc2ccc(C(=O)O)cc2)CCC3)cnc1F)c1cc2c(cc1F)OC(F)(F)O2 (single isomer, unassigned) [Example 36d] | B (RLU 3.5 μM-5.0 μM)
C[C@H](Oc1cncc(-n2nc(C(F)(F)F)c3c2[C@@H](Oc2ccc(C(=O)O)cc2)CCC3)c1)c1cc2c(cc1F)OC(F)(F)O2 (single isomer, unassigned) [Example 36e] | A (RLU 5.0 μM-10 μM)
C[C@H](Oc1nc(-n2nc(C(F)(F)F)c3c2[C@@H](Oc2ccc(C(=O)O)cc2)CCC3)ccc1F)c1ccc2c(c1)OC(F)(F)O2 (single isomer, unassigned) [Example 36f] | A (RLU 5.0 μM-10 μM)
C[C@H](Oc1cccc(-n2nc(C(F)(F)F)c3c2[C@@H](Oc2ccc(C(=O)O)cc2)CCC3)c1)c1cc2c(cc1F)OC(F)(F)O2 (single isomer, unassigned) [Example 36g] | B (RLU 3.5 μM-5.0 μM)
